32 molecules from patent publication US7217730B2, “Method for the use of pyranoindole derivatives to treat infection with Hepatitis C virus” (Wyeth, priority 2002, dated 2007) can be followed below.

pIC50: −log10 of the molar value. Where two headings read alike, the source gives them in different places. Where only a bound is given, the exact number is not on record here.

The target of this assay is T1, NS5B from the BK strain (genotype 1b) (Hepatitis C virus genotype 1b, UniProt P26663).
T1 construct: NS5B from the BK strain (genotype 1b) is expressed in E. coli as a protein in which the 21 C-terminal amino acids are replaced; made in house; host or cells: E. coli
Nature of the assay: Hepatitis C polymerase inhibition, NS5B BK strain, 33P-GTP filter assay. Type of assay: biochemical. The following applies: for inhibition at 20 µM: read-out: HCV pol % inh at 20 μM; for pIC50: NS5B BK strain. The gist of the method:
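E. coli-expressed NS5B (BK, genotype 1b) with the 21 C-terminal residues replaced by a linker-His6 tag was preincubated with compound for 15 min at room temperature. It then extended a hairpin-primed heteropolymeric RNA (~3 nM, ~760 nt product) with α-[33P]-GTP for 2 h at 22–25° C. The reaction was stopped with EDTA, and incorporated label was counted on filters.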

Where [1] appears, read: Table 1A, read-out: HCV pol BK IC50.

T1 sequence (P26663 2420-2989): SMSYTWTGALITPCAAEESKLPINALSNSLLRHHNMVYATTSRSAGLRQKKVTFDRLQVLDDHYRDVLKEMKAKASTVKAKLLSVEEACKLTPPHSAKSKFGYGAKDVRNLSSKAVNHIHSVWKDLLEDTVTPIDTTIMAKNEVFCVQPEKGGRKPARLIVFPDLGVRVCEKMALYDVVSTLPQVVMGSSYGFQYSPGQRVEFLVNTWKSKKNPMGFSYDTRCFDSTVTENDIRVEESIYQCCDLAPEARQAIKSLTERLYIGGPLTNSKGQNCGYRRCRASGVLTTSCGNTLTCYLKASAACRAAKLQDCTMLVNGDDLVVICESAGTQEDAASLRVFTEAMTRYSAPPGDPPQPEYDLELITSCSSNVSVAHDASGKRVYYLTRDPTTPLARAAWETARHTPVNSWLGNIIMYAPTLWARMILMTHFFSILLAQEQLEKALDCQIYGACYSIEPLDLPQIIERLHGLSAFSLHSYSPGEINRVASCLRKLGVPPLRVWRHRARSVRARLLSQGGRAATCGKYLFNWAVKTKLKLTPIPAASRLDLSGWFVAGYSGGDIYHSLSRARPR

By pIC50 is commonly meant −log10 of the IC50, conventionally taken in molar units. With `CCCCC1(CC(=O)O)OCCc2c1[nH]c1c(Cl)cccc21` (stereo not drawn) [Example 76, (1-butyl-8-chloro-1,3,4,9-tetrahydropyrano[3,4-b]indol-1-yl)acetic acid], the inhibition at 20 µM (Table 1A, 20 μM compound) was found to be 29%. The negative logarithm of the IC50 (pIC50) under setting [1] was below 4.70. For `CCCCC1(CC(=O)O)OCCc2c1[nH]c1c(C(F)(F)F)cccc21` (stereo not drawn) [Example 119, [1-butyl-8-(trifluoromethyl)-1,3,4,9-tetrahydropyrano[3,4-b]indol-1-yl]acetic acid] the same measures were 31% and below 4.70.

As for `CCCC1(CC(=O)O)OCCc2c1[nH]c1c(C)ccc(C)c21` (stereo not drawn) [Example 139, (5,8-dimethyl-1-propyl-1,3,4,9-tetrahydropyrano[3,4-b]indol-1-yl)acetic acid], the inhibition at 20 µM (Table 1A, 20 μM compound) came out at 40%. Under setting [1], the negative-log IC50 (pIC50) is 5.08.

Regarding `CCCC1(CC(=O)O)OCCc2c1[nH]c1cccc(-c3ccco3)c21` (stereo not drawn) [Example 40, [5-(2-furyl)-1-propyl-1,3,4,9-tetrahydropyrano[3,4-b]indol-1-yl]acetic acid], for the setting “Table 1A, 20 μM compound”, the inhibition at 20 µM stood at 27%. In addition, the pIC50 under setting [1] was below 4.70. As to `CCCC1(CC(=O)O)OCCc2c1[nH]c1c(-c3ccc(C(F)(F)F)cc3)cccc21` (stereo not drawn) [Example 94, {1-propyl-8-[4-(trifluoromethyl)phenyl]-1,3,4,9-tetrahydropyrano[3,4-b]indol-1-yl}acetic acid], under “Table 1A, 20 μM compound”, the inhibition at 20 µM came to 33%. Also, the pIC50 under setting [1] was below 4.70.

In the case of `O=C(O)CC1(c2ccccc2)OCCc2c1[nH]c1c(C(F)(F)F)cccc21` (stereo not drawn) [Example 121, [1-phenyl-8-(trifluoromethyl)-1,3,4,9-tetrahydropyrano[3,4-b]indol-1-yl]acetic acid], the inhibition at 20 µM (Table 1A, 20 μM compound) is below 5%. Moreover, the negative logarithm of the IC50 (pIC50) under setting [1] is below 4.70. For `CCC1(CC(=O)O)OCCc2c1[nH]c1c(Br)ccc(Br)c21` (stereo not drawn) [Example 210, (5,8-dibromo-1-ethyl-1,3,4,9-tetrahydropyrano[3,4-b]indol-1-yl)acetic acid] the same measures were 87% and 6.37.

Consider `O=C(O)CC1(c2ccccc2F)OCCc2c1[nH]c1c(Cl)ccc(Cl)c21` (stereo not drawn) [Example 56, [5,8-dichloro-1-(2-fluorophenyl)-1,3,4,9-tetrahydropyrano[3,4-b]indol-1-yl]acetic acid], for which, under “Table 1A, 20 μM compound”, the inhibition at 20 µM was 3%. Moreover, the pIC50 under setting [1] was below 4.70. The like results for `CCCC1(CC(=O)O)OCCc2c1[nH]c1cccc(-c3ccc(Br)cc3)c21` (stereo not drawn) [Example 41, [5-(4-bromophenyl)-1-propyl-1,3,4,9-tetrahydropyrano[3,4-b]indol-1-yl]acetic acid] were, in that order, 13% and below 4.70. With `C/C=C/CCC1(CC(=O)O)OCCc2c1[nH]c1c(Cl)cc(C)c(Br)c21` (stereo not drawn) [Example 178, {5-bromo-8-chloro-6-methyl-1-[(3E)-pent-3-enyl]-1,3,4,9-tetrahydropyrano[3,4-b]indol-1-yl}acetic acid], where the note is “Table 1A, 20 μM compound”, the inhibition at 20 µM is below 32%. Besides, the pIC50 under setting [1] was below 5.30. The like results for `O=C(O)CC1(c2ccccc2)OCCc2c1[nH]c1c(Cl)ccc(Cl)c21` (stereo not drawn) [Example 52, (5,8-dichloro-1-phenyl-1,3,4,9-tetrahydropyrano[3,4-b]indol-1-yl)acetic acid] were, in that order, 11% and below 4.70. The like results for `CCCC1(CC(=O)O)OCCc2c1[nH]c1c(C)cc(F)c(Br)c21` (stereo not drawn) [Example 201, (5-bromo-6-fluoro-8-methyl-1-propyl-1,3,4,9-tetrahydropyrano[3,4-b]indol-1-yl)acetic acid] were, in that order, 82% and 6.82. As to `CCCCC1(CC(=O)O)OCCc2c1[nH]c1c(Cl)ccc(C(F)(F)F)c21` (stereo not drawn) [Example 133, [1-butyl-8-chloro-5-(trifluoromethyl)-1,3,4,9-tetrahydropyrano[3,4-b]indol-1-yl]acetic acid], the inhibition at 20 µM (Table 1A, 20 μM compound) stood at 88%. The pIC50 under setting [1] is 6.15. The like results for `CCCCC1(CC(=O)O)OCCc2c1[nH]c1c(F)ccc(F)c21` (stereo not drawn) [Example 126, (1-butyl-5,8-difluoro-1,3,4,9-tetrahydropyrano[3,4-b]indol-1-yl)acetic acid] were, in that order, 35% and below 4.70. `O=C(O)CC1(c2ccc(C(=O)O)cc2)OCCc2c1[nH]c1c(Cl)cc(Cl)c(Cl)c21` (stereo not drawn) [Example 161, 4-[1-(carboxymethyl)-5,6,8-trichloro-1,3,4,9-tetrahydropyrano[3,4-b]indol-1-yl]benzoic acid]: the inhibition at 20 µM (Table 1A, 20 μM compound) was determined as 74%. The pIC50 under setting [1] was 6.52. As to `CCCC1(CC(=O)O)OCCc2c1[nH]c1cccc(-c3ccccc3OC)c21` (stereo not drawn) [Example 43, [5-(2-methoxyphenyl)-1-propyl-1,3,4,9-tetrahydropyrano[3,4-b]indol-1-yl]acetic acid], the inhibition at 20 µM is 83%. The pIC50 under setting [1] was below 4.70.

With `CCCC1(CC(=O)O)OCCc2c1[nH]c1c(C)cc(F)c(C#N)c21` (stereo not drawn) [Example 10, (5-cyano-6-fluoro-8-methyl-1-propyl-1,3,4,9-tetrahydropyrano[3,4-b]indol-1-yl)acetic acid], the negative-log IC50 (pIC50) under setting [1] was 7.10.

For `CCCCC1(CC(=O)O)OCCc2c1[nH]c1c(Br)cccc21` (stereo not drawn) [Example 84, (8-bromo-1-butyl-1,3,4,9-tetrahydropyrano[3,4-b]indol-1-yl)acetic acid], under “Table 1A, 20 μM compound”, the inhibition at 20 µM amounted to 46%. For the same molecule, under setting [1], the pIC50 was 4.71. In the case of `N#Cc1ccc(F)c2[nH]c3c(c12)CCOC3(CC(=O)O)C1CCCCC1` (stereo not drawn) [Example 309, (5-cyano-1-cyclohexyl-8-fluoro-1,3,4,9-tetrahydropyrano[3,4-b]indol-1-yl)acetic acid], the negative logarithm of the IC50 (pIC50) (Table 1B, read-out: BK IC50) is 4.59. With `CCCC1(CC(=O)O)OCCc2c1[nH]c1cccc(-c3ccc(C(F)(F)F)cc3)c21` (stereo not drawn) [Example 36, {1-propyl-5-[4-(trifluoromethyl)phenyl]-1,3,4,9-tetrahydropyrano[3,4-b]indol-1-yl}acetic acid], the inhibition at 20 µM (Table 1A, 20 μM compound) amounted to 4%. The negative-log IC50 (pIC50) under setting [1] was below 4.70. As to `CCCC1(CC(=O)O)OCCc2c1[nH]c1c(Cl)cc(C)c(I)c21` (stereo not drawn) [Example 217, (8-chloro-5-iodo-6-methyl-1-propyl-1,3,4,9-tetrahydropyrano[3,4-b]indol-1-yl)acetic acid], the inhibition at 20 µM (Table 1A, 20 μM compound) amounted to 88%. For the same molecule, the negative-log IC50 (pIC50) under setting [1] was 6.20. As for `COC(=O)CC1(CC(=O)O)OCCc2c1[nH]c1cccc(Cl)c21` (stereo not drawn) [Example 70, [5-chloro-1-(2-methoxy-2-oxoethyl)-1,3,4,9-tetrahydropyrano[3,4-b]indol-1-yl]acetic acid], under “Table 1A, 20 μM compound”, the inhibition at 20 µM was found to be 22%. For the same molecule, the pIC50 under setting [1] was below 5.30. For `Cc1cc(Cl)c2[nH]c3c(c2c1Br)CCOC3(C)CC(=O)O` (stereo not drawn) [Example 173, (5-bromo-8-chloro-1,6-dimethyl-1,3,4,9-tetrahydropyrano[3,4-b]indol-1-yl)acetic acid] the same measures were 19% and below 5.30. For `Cc1ccc(F)c2c3c([nH]c12)C(CC(=O)O)(c1ccccc1)OCC3` (stereo not drawn) [Example 146, (5-fluoro-8-methyl-1-phenyl-1,3,4,9-tetrahydropyrano[3,4-b]indol-1-yl)acetic acid] the same measures were 45% and below 4.70.

As for `CCCC1(CC(=O)O)OCCc2c1[nH]c1c(Cl)ccc(Cl)c21` (stereo not drawn) [Example 7, (5,8-dichloro-1-propyl-1,3,4,9-tetrahydro-pyrano[3,4-b]indol-1-yl)acetic acid], the pIC50 under setting [1] was 6.70. For the molecule `CCC[C@]1(C(=O)O)OCCc2c1[nH]c1c(F)ccc(C#N)c21` [Example 344, (1S)-(5-cyano-8-fluoro-1-propyl-1,3,4,9-tetrahydropyrano[3,4-b]indol-1-yl)carboxylic acid], the pIC50 (Table 1B, read-out: BK IC50) is 6.15. In the case of `O=C(O)CC1(c2ccc(C(=O)O)cc2)OCCc2c1[nH]c1c(Br)cccc21` (stereo not drawn) [Example 87, 4-[8-bromo-1-(carboxymethyl)-1,3,4,9-tetrahydropyrano[3,4-b]indol-1-yl]benzoic acid], where the note is “Table 1A, 20 μM compound”, the inhibition at 20 µM worked out at 42%. The pIC50 under setting [1] was below 4.70. The like results for `Cc1cc(F)c2[nH]c3c(c2c1Br)CCOC3(CC(=O)O)c1ccc(C(=O)O)cc1` (stereo not drawn) [Example 169, 4-[5-bromo-1-(carboxymethyl)-8-fluoro-6-methyl-1,3,4,9-tetrahydropyrano[3,4-b]indol-1-yl]benzoic acid] were, in that order, 82% and 6.66. The like results for `CCC1(CC(=O)O)OCCc2c1[nH]c1c(C)cc(F)c(Br)c21` (stereo not drawn) [Example 200, (5-bromo-1-ethyl-6-fluoro-8-methyl-1,3,4,9-tetrahydropyrano[3,4-b]indol-1-yl)acetic acid] were, in that order, 83% and 5.68.

On to `O=C(O)CC1(c2ccccc2)OCCc2c1[nH]c1c(Cl)cc(Cl)cc21` (stereo not drawn) [Example 105, (6,8-dichloro-1-phenyl-1,3,4,9-tetrahydropyrano[3,4-b]indol-1-yl)acetic acid], for which the inhibition at 20 µM (Table 1A, 20 μM compound) turned out to be 57%. Under setting [1], the pIC50 was below 5.30. For `O=C(O)CC1(CC(=O)O)OCCc2c1[nH]c1cccc(Cl)c21` [Example 71, [1-(carboxymethyl)-5-chloro-1,3,4,9-tetrahydropyrano[3,4-b]indol-1-yl]acetic acid] the same measures were 45% and below 5.30. The like results for `Cc1cc(F)c2[nH]c3c(c2c1C#N)CCOC3(CC(=O)O)c1ccc(C(=O)O)cc1` (stereo not drawn) [Example 172, 4-[1-(carboxymethyl)-5-cyano-8-fluoro-6-methyl-1,3,4,9-tetrahydropyrano[3,4-b]indol-1-yl]benzoic acid] were, in that order, 74% and 5.77.
